Where a name gives a salt, the structure may show the parent alone.
Key:
Assay type in all cases: cell-based
[1] = molecular target: T1, human serotonin transporter (Homo sapiens, UniProt P31645); experiment: Inhibitory action on human serotonin transporter ([3H]-5-hydroxytryptamine uptake in CHO cells); details: CHO, compound 1 μM; relative to inhibitory activity of 10 μM Paroxetine as 100%; read-out: inhibitory rate (%)
T1 construct: expressed in transfected cells
From the text: (§1) Human serotonin transporter cDNA was amplified from human brain cDNA library by PCR, and inserted into pCRII-TOPO vector (manufactured by Invitrogen). The base sequence was confirmed and modified, and subcloned to pcDNA3.1 vector (manufactured by Invitrogen), whereby a human serotonin transporter expression plasmid was constructed. Human norepinephrine transporter cDNA was purchased from Invitrogen, and the base sequence was confirm and modified, and subcloned to pcDNA3.1 vector, whereby a human norepinephrine transporter expression plasmid was constructed.
(§2) The monoamine transporter expression plasmids thus prepared were introduced into CHO-K1 cells using FuGENE6 (manufactured by Roche Diagnostics) and according to the attached protocol, whereby each expressing cell was established.
CHO cells stably expressing a human serotonin transporter were used for the measurement of human serotonin transporter inhibitory activity. Unless particularly indicated, these CHO cells were cultured in a Ham/F12 medium (Invitrogen) containing 10% fetal bovine serum (MOREGATE).
(§3) The cultured cells that reached almost confluent were rinsed with PBS (Invitrogen), detached with Trypsin/EDTA (Invitrogen), and collected by a centrifugal operation. The obtained cells were counted, and diluted to 3×10^5 cells per 1 mL medium, the mixture was dispensed to a 96 well white plate (Corning) at 100 μL per well, and cultured overnight in a CO2 incubator.
(§4) Then, an assay buffer (126 mM NaCl, 4.95 mM KCl, 1.26 mM KH2PO4, 1.26 mM MgSO4, 10 mM HEPES, 2.32 mM CaCl2, 5.52 mM Glucose, 0.5% BSA) was prepared, the medium in the cell plate was removed and the assay buffer was added by 80 μL. A test compound was diluted with the assay buffer to a 10-fold concentration of the final concentration, and the mixture was dispensed to a 96 well polypropylene plate. The diluted test compound was dispensed to the cell plate by 10 μL. [3H]-5-Hydroxytryptamine (GE Healthcare) was diluted with the assay buffer to 200 nM, and the mixture was dispensed to the cell plate by 10 μL. At 20 min from [3H]-5-hydroxytryptamine addition, the assay buffer was removed by suction, and the plate was washed twice with 150 μL of PBS (Invitrogen) per well. Microscinti20 (PerkinElmer) was dispensed to each well by 100 μL, and the mixture was stirred for about 30 min. The radioactivity was measured by TopCount (PerkinElmer).
The inhibitory activity of each compound (10 μM) was calculated as a relative activity value based on the inhibitory activity of 10 μM Paroxetine (serotonin transporter inhibitor) as 100%.
In addition, the inhibitory activity of each compound (1 μM) was calculated as a relative activity value based on the inhibitory activity of 10 μM Paroxetine (serotonin transporter inhibitor) as 100%.

[2] = molecular target: T2, human norepinephrine transporter (Homo sapiens, UniProt P23975); experiment: Inhibitory action on human norepinephrine transporter ([3H]-norepinephrine uptake in CHO cells); details: CHO, compound 1 μM; relative to inhibitory activity of 10 μM DMI as 100%; read-out: inhibitory rate (%)
T2 construct: expressed in transfected cells
T2 sequence (P23975 whole entry): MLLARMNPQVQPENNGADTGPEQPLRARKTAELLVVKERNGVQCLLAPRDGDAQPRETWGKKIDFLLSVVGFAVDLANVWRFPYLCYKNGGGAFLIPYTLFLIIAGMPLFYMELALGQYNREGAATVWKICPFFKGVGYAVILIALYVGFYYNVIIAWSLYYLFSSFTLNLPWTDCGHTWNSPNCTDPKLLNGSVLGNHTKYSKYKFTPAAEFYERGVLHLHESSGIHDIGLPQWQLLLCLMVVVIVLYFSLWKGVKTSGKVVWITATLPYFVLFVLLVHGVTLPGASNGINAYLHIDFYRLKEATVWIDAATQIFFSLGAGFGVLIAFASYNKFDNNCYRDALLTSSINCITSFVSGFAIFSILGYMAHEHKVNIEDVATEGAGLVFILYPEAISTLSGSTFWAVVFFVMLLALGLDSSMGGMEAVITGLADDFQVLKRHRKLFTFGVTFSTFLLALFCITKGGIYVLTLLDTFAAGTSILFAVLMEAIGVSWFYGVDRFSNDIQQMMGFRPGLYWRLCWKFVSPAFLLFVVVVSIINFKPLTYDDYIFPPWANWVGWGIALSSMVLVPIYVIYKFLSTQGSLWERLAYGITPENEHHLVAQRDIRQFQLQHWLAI
From the text: as §1, §2
CHO cells stably expressing human norepinephrine transporter were used for the measurement of human norepinephrine transporter inhibitory activity. Unless otherwise indicated, these CHO cells were cultured in Ham/F12 medium (Invitrogen) containing 10% fetal bovine serum (MOREGATE).
as §3, with “medium, and” for “medium,”
as §4, with “μL. [3H]-Norepinephrine” for “μL. [3H]-5-Hydroxytryptamine”, “At 45” for “At 20”, “from [3H]-norepinephrine” for “from [3H]-5-hydroxytryptamine”
The inhibitory activity of each compound (10 μM) was calculated as a relative activity value based on the inhibitory activity of 10 μM DMI (norepinephrine transporter inhibitor) as 100%.
The inhibitory activity of each compound (1 μM) was calculated as a relative activity value based on the inhibitory activity of 10 μM DMI (norepinephrine transporter inhibitor) as 100%.

[3] = molecular target: T3, human dopamine transporter (Homo sapiens, UniProt Q01959); experiment: Inhibitory action on human dopamine transporter ([3H]-dopamine uptake in CHO cells); details: CHO, compound 1 μM; relative to inhibitory activity of 100 μM Nomifensine as 100%; read-out: inhibitory rate (%)
T3 construct: expressed in transfected cells
T3 sequence (Q01959 whole entry): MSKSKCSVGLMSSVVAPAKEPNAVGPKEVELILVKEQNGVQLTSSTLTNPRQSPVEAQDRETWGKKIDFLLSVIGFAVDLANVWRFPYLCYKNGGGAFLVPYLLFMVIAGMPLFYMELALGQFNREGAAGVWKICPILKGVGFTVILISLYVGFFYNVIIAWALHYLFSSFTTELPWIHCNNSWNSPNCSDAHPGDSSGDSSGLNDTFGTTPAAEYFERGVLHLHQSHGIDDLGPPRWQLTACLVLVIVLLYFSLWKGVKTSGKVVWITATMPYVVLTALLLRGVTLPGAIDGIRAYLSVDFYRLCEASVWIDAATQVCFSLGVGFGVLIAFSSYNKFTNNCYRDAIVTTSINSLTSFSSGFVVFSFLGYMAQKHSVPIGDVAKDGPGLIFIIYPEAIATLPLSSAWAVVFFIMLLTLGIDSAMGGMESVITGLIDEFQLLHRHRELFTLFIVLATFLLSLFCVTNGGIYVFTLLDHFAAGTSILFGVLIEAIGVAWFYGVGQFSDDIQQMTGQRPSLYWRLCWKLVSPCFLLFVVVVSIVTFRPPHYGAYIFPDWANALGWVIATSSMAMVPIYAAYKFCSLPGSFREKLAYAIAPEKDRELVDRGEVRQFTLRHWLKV
From the text: SRα promoter contained in pTB1411 described in JP-A-H5-076385 was cleaved with restriction enzyme […](manufactured by TAKARA BIO INC.), blunt-ended, further cleaved with restriction enzyme EcoRI (manufactured by TAKARA BIO INC.), and fragmented. On the other hand, pCI vector was cleaved with restriction enzyme BglII (manufactured by TAKARA BIO INC.), blunt-ended with T4 DNA polymerase, and further cleaved with restriction enzyme EcoRI (manufactured by TAKARA BIO INC.). Into this site was inserted an SRa promoter fragment to give pCI-SRa. Then, pCI-SRa was cleaved with restriction enzyme ClaI (manufactured by TAKARA BIO INC.) and blunt-ended. Into this site was inserted a 1.63 Kb fragment obtained by cleaving pGFP-C1 (manufactured by TOYOBO) with restriction enzyme Bsu36I (manufactured by Daiichi Pure Chemicals Co., Ltd.) followed by blunt-ending, whereby pMSRα neo was prepared. Human dopamine transporter cDNA was amplified from human substantia nigra cDNA library by PCR, and inserted into the pCRII vector (manufactured by Invitrogen). The base sequence was confirmed, modified and subcloned to pMSRα neo, whereby a human dopamine transporter expression plasmid was constructed.
as §2
CHO cells stably expressing human dopamine transporter were used for the measurement of human dopamine transporter inhibitory activity. Unless otherwise indicated, these CHO cells were cultured in Ham/F12 medium (Invitrogen) containing 10% fetal bovine serum (MOREGATE).
as §3, with “One day before the assay, the cultured” for “The cultured”, “medium, and” for “medium,”
as §4, with “On the day of the test, an” for “Then, an”, “μL. [3H]-Dopamine” for “μL. [3H]-5-Hydroxytryptamine”, “nM, cold dopamine was diluted to 10 μM,” for “nM,”, “At 60” for “At 20”, “from [3H]-dopamine” for “from [3H]-5-hydroxytryptamine”
The inhibitory activity of each compound (10 μM) was calculated as a relative activity value based on the inhibitory activity of 100 μM Nomifensine (dopamine transporter inhibitor) as 100%.
The inhibitory activity of each compound (1 μM) was m calculated as a relative activity value based on the inhibitory activity of 100 μM Nomifensine (dopamine transporter inhibitor) as 100%.

T1 sequence (P31645 whole entry): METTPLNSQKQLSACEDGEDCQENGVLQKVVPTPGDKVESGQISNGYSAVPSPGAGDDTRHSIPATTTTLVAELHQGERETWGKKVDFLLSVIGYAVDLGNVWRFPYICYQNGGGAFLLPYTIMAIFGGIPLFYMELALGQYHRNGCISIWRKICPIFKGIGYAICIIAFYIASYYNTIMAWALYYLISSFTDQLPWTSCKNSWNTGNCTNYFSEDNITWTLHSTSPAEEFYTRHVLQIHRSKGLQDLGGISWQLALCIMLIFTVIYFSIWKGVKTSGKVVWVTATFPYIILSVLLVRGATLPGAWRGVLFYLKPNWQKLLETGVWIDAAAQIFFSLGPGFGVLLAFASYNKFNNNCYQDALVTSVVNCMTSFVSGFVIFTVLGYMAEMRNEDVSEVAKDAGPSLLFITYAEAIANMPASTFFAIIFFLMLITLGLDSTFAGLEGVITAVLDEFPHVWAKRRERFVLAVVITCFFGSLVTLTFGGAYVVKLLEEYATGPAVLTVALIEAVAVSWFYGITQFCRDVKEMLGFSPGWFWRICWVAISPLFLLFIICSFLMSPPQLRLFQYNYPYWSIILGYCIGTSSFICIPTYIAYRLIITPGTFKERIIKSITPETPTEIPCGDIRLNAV

| SMILES | inhibition at 1 µM [1] | inhibition at 1 µM [2] | inhibition at 1 µM [3] |
| --- | --- | --- | --- |
| CS(=O)(=O)NC[C@@]1(O)CNCCO[C@@H]1c1ccc(Cl)c(Cl)c1 (racemic) [Example 162, N-{[(6RS,7SR)-7-(3,4-dichlorophenyl)-6-hydroxy-1,4-oxazepan-6-yl]methyl}methanesulfonamide monohydrochloride] | 65% | 105% | 40% |
| O=c1[nH]c(-c2cccnc2O[C@H]2CNCCOC2c2ccc(Cl)c(Cl)c2)no1 (mixture of isomers) [Example 236, 3-(2-{[(6RS,7SR)-7-(3,4-dichlorophenyl)-1,4-oxazepan-yl]oxy}pyridin-3-yl)-1,2,4-oxadiazol-5(4H)-one monohydrochloride] | 92% | 105% | 93% |
| OC[C@@H]1CNCCO[C@@H]1c1ccc(F)c(Cl)c1 (racemic) [Example 278, [(6RS,7RS)-7-(3-chloro-4-fluorophenyl)-1,4-oxazepan-6-yl]methanol monohydrochloride] | 87% | 91% | 13% |
| CS(=O)(=O)C[C@@H]1CNCCOC1c1ccc(F)c(Cl)c1 (mixture of isomers) [Example 281, (6RS,7SR)-7-(3-chloro-4-fluorophenyl)-6-[(methylsulfonyl)methyl]-1,4-oxazepane monohydrochloride] | 95% | 95% | 22% |
| CS(=O)(=O)NC[C@H]1CNCCO[C@@H]1c1ccc(F)c(Cl)c1 (racemic) [Example 293, N-{[(6RS,7SR)-7-(3-chloro-4-fluorophenyl)-1,4-oxazepan-6-yl]methyl}methanesulfonamide monohydrochloride] | 65% | 95% | 31% |
| OC[C@H]1CNCCO[C@@H]1c1cc2ccccc2s1 (racemic) [Example 410, [(6RS,7SR)-7-(1-benzothiophen-2-yl)-1,4-oxazepan-6-yl]methanol monohydrochloride] | 91% | 103% | 32% |
| O=S(=O)(NC[C@@]1(O)CNCCO[C@@H]1c1ccc(Cl)c(Cl)c1)C(F)F (racemic) [Example 521, N-{[(6RS,7SR)-7-(3,4-dichlorophenyl)-6-hydroxy-1,4-oxazepan-6-yl]methyl}-1,1-difluoromethanesulfonamide monohydrochloride] | 84% | 104% | 76% |

Next, values leading:

| inhibition at 1 µM [1] | inhibition at 1 µM [2] | inhibition at 1 µM [3] | SMILES |
| --- | --- | --- | --- |
| 59% | 100% | 25% | O[C@H]1CNCCO[C@@H]1c1ccc(Cl)c(Cl)c1 (racemic) [Example 230, (6RS,7SR)-7-(3,4-dichlorophenyl)-1,4-oxazepan-6-ol monohydrochloride] |
| 8% | 86% | 83% | CCOC(=O)[C@H]1NCCOC[C@@H]1c1ccc(Cl)c(Cl)c1 (racemic) [Example 412, ethyl (5RS,6SR)-6-(3,4-dichlorophenyl)-1,4-oxazepane-5-carboxylate monohydrochloride] |
| 53% | 100% | 58% | COC[C@@H]1OCCNC[C@@H]1c1ccc(Cl)c(Cl)c1 (racemic) [Example 449, (6RS,7SR)-6-(3,4-dichlorophenyl)-7-(methoxymethyl)-1,4-oxazepane monohydrochloride] |
| 27% | 101% | 47% | O=C(Cn1cncn1)NC[C@@H]1OCCNC[C@@H]1c1ccc(Cl)c(Cl)c1 (racemic) [Example 457, N-{[(6RS,7SR)-6-(3,4-dichlorophenyl)-1,4-oxazepan-7-yl]methyl}-2-(1H-1,2,4-triazol-1-yl)acetamide monohydrochloride] |
| 59% | 105% | 42% | OCCOC[C@H]1OCCNC[C@@H]1c1ccc(Cl)c(Cl)c1 (racemic) [Example 495, 2-{[(6RS,7RS)-6-(3,4-dichlorophenyl)-1,4-oxazepan-7-yl]methoxy}ethanol monohydrochloride] |
| 84% | 105% | 36% | CS(=O)(=O)NCCC[C@@H]1OCCNC[C@H]1c1ccc(Cl)c(Cl)c1 (racemic) [Example 520, N-{3-[(6RS,7SR)-6-(3,4-dichlorophenyl)-1,4-oxazepan-7-yl]propyl}methanesulfonamide monohydrochloride] |
